Experimental data reported in patent US8846710B2, “Method of preferentially inducing the biosynthesis of interferon” (3M Innovative Properties Company, priority 2005, dated 2014).
Like-named read-outs stand apart in the source and are kept apart here.

What was measured:
interferon (α) (IFN-α) = experiment: Cytokine induction in human cells: IFN-α secreted by PBMC into culture media (ELISA); format: cell-based; settings: for Maximal Response IFN / Minimum Effective Concentration IFN / minimal effective concentration: human PBMC; for Maximal Response IFN / Minimum Effective Concentration IFN: median where tested in more than one experiment; for minimal effective concentration: lowest tested concentration inducing IFN-α over usually 20 pg/mL, median where more than one experiment, read-out: Minimum Effective Concentration (μM) IFN; for Maximal Response (pg/mL) IFN: maximal response in dose response curve, median
Summary of the method: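 IFN-α secreted by density-gradient-isolated PBMC (final 2×10^6 cells/mL) was quantified by ELISA after 18–24 h compound exposure at 37 °C, typically 30-0.014 μM in 3-fold steps with ≤1% DMSO. Readings corrected for background and reference-compound variability; lowest concentration above usually 20 pg/mL reported, plus maximal response (pg/mL).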

[1] = tested on: tumor necrosis factor (α) (TNF-α); experiment: Cytokine induction in human cells: TNF-α secreted by PBMC into culture media (ORIGEN M-Series immunoassay); format: cell-based; parameters: key to Maximal Response (pg/mL) TNF / Maximal Response TNF: If any negative values result from background subtraction, the reading is reported as “*”, and is noted as not reliably detectable; settings: for Minimum Effective Concentration TNF / Maximal Response TNF / minimal effective concentration: human PBMC; for Minimum Effective Concentration TNF: median where tested in more than one experiment; for Maximal Response TNF / Maximal Response (pg/mL) TNF: median; for minimal effective concentration: lowest tested concentration inducing TNF-α over usually 40 pg/mL, median where more than one experiment, read-out: Minimum Effective Concentration (μM) TNF; for Maximal Response (pg/mL) TNF: maximal response in dose response curve
Summary of the method: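 Secreted TNF-α (pg/mL) was quantified by ORIGEN M-Series immunoassay after 18 to 24 hours culture at 37° C of human PBMC (2×10^6 cells/mL final) with test compound (usually 30-0.014 μM, 3-fold series, DMSO ≤1%). Values were corrected for DMSO or experimental background and a reference-compound ratio, giving a minimum effective concentration.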

[2] = Table 11, * = TNF below experimental background of 40 pg/mL
[3] = Table 9, * = below experimental background level of 40 pg/mL
[4] = Table 10, * = below experimental background level
[5] = Table 12, * = below the experimental background of 40 pg/mL
[6] = Table 7, background-subtracted, reference-adjusted

Row | SMILES | Maximal Response IFN (interferon (α) (IFN-α); Table 11) | Minimum Effective Concentration IFN (interferon (α) (IFN-α); Table 11) | Minimum Effective Concentration TNF ([1]; Table 11) | Maximal Response TNF [1, 2] | also measured
1 | Cc1nc2c(N)nc3ccccc3c2n1CCCCCS(C)(=O)=O [Analog 73] | 1294 pg/mL | 0.37 µM | 3.33 µM | 771 pg/mL | 
2 | CCCc1nc2c(N)nc3ccccc3c2n1CCOCCN(C)S(C)(=O)=O [Analog 79] | 1055 pg/mL | 0.37 µM | 3.33 µM | 1312 pg/mL | 
3 | CC(C)(O)Cn1c(CO)nc2c(N)nc3cc(-c4cccnc4)ccc3c21 [Example 163] |  |  |  |  | minimal effective concentration (interferon (α) (IFN-α); Table 10): 0.37 µM; minimal effective concentration ([1]; Table 9): >30 µM; Maximal Response (pg/mL) TNF [1, 3]: *; minimal effective concentration ([1]; Table 10): 10 µM; Maximal Response (pg/mL) TNF [1, 4]: 51 pg/mL
4 | Nc1nc2ccccc2c2c1nc(CCO)n2CCCCNC(=O)N1CCOCC1 [Example 115] | 8361 pg/mL | 1.11 µM | >30 µM | * | 
5 | CCOCc1nc2c(N)nc3cccnc3c2n1CC(C)C [Analog 132, 2-ethoxymethyl-1-(2-methylpropyl)-1H-imidazo[4,5-c][1,5]naphthyridin-4-amine] |  |  |  |  | Maximal Response IFN (interferon (α) (IFN-α); Table 12): 1524 pg/mL; Maximal Response TNF [1, 5]: 3160 pg/mL
6 | CCc1nc2c(N)nc3ccccc3c2n1CCCCNC(=O)N1CCOCC1 [Analog 54] | 4975 pg/mL | 0.37 µM | 3.33 µM | 2570 pg/mL | 
7 | CCCCNC(=O)NCCCn1c(COCC)nc2c(N)nc3ccccc3c21 [Analog 97] | 827 pg/mL | 0.37 µM | 3.33 µM | 963 pg/mL | 
8 | CC(C)(F)Cn1c(CCO)nc2c(N)nc3cccnc3c21 [Example 552, 2-[4-Amino-1-(2-fluoro-2-methylpropyl)-1H-imidazo[4,5-c][1,5]naphthyridin-2-yl]ethanol] |  |  |  |  | Maximal Response IFN (interferon (α) (IFN-α); Table 12): 1646 pg/mL; Maximal Response TNF [1, 5]: 84 pg/mL
9 | CCCC(=O)NCCCCn1c(CCC)nc2c(N)nc3cc(-c4cccnc4)ccc3c21 [Analog 32] |  |  |  |  | minimal effective concentration (interferon (α) (IFN-α); Table 10): 0.12 µM; Maximal Response (pg/mL) IFN (interferon (α) (IFN-α); [4]): 862 pg/mL; minimal effective concentration ([1]; Table 10): 0.37 µM; Maximal Response (pg/mL) TNF [1, 4]: 1647 pg/mL
10 | CCc1nc2c(N)nc3ccccc3c2n1CCOCCN(C)S(C)(=O)=O [Analog 78] | 1803 pg/mL | 0.12 µM | 1.11 µM | 2525 pg/mL | 
11 | COCCc1nc2c(N)nc3ccccc3c2n1CCCCNC(=O)c1cnc2ccccc2n1 [Analog 116] | 1129 pg/mL | 0.014 µM | 0.04 µM | 7261 pg/mL | 
12 | CC(C)(Cn1c(CO)nc2c(N)nc3cccnc3c21)NC(=O)C1CCCCC1 [Example 143, N-[2-(4-Amino-2-hydroxymethyl-1H-imidazo[4,5-c][1,5]naphthyridin-1-yl)-1,1-dimethylethyl]cyclohexanecarboxamide] |  |  |  |  | Maximal Response IFN (interferon (α) (IFN-α); Table 12): 1467 pg/mL; Maximal Response TNF [1, 5]: 798 pg/mL
13 | CCc1nc2c(N)nc3ccccc3c2n1CCCCNS(C)(=O)=O [Analog 49] | 2712 pg/mL | 0.04 µM | 3.33 µM | 679 pg/mL | 
14 | CCc1nc2c(N)nc3ccccc3c2n1CC(C)(C)NS(C)(=O)=O [Analog 2, N-[2-(4-Amino-2-ethyl-1H-imidazo[4,5-c]quinolin-1-yl)-1,1-dimethylethyl]methanesulfonamide] | 1096 pg/mL |  |  | 9675 pg/mL | Maximal Response (pg/mL) IFN (interferon (α) (IFN-α); [6]): 831 pg/mL; Maximal Response (pg/mL) TNF [1, 6]: 3670 pg/mL
15 | CC(C)CC(=O)NCCn1c(CCO)nc2c(N)nc3ccccc3c21 [Example 138] | 36 pg/mL | 3.33 µM | >30 µM | * | 
16 | COCCc1nc2c(N)nc3ccccc3c2n1CCCCN [Analog 114] | 127231 pg/mL | 0.04 µM | 0.37 µM | 724 pg/mL | 
17 | CCOCc1nc2c(N)nc3cc(-c4cncc(CO)c4)ccc3c2n1CC(C)(C)O [Analog 14] |  |  |  |  | minimal effective concentration (interferon (α) (IFN-α); Table 10): 0.014 µM; Maximal Response (pg/mL) IFN (interferon (α) (IFN-α); [4]): 6308 pg/mL; minimal effective concentration ([1]; Table 10): 0.12 µM; Maximal Response (pg/mL) TNF [1, 4]: 18284 pg/mL

Row | SMILES | Maximal Response IFN (interferon (α) (IFN-α); Table 11) | Minimum Effective Concentration IFN (interferon (α) (IFN-α); Table 11) | Minimum Effective Concentration TNF ([1]; Table 11) | Maximal Response TNF [1, 2] | also measured
18 | Cc1nc2c(N)nc3ccccc3c2n1CCOCCN(C)S(C)(=O)=O [Analog 77] | 1001 pg/mL | 0.12 µM | 1.11 µM | 3571 pg/mL | 
19 | COCCc1nc2c(N)nc3ccccc3c2n1CCCCNS(=O)(=O)c1ccc(F)cc1 [Analog 113] | 6032 pg/mL | 0.014 µM | 0.04 µM | 3786 pg/mL | 
20 | CCOCc1nc2c(N)nc3cc(-c4cncc(CO)c4)ccc3c2n1CC1CCCCC1 [Analog 45] |  |  |  |  | minimal effective concentration (interferon (α) (IFN-α); Table 10): 0.014 µM; Maximal Response (pg/mL) IFN (interferon (α) (IFN-α); [4]): 1062 pg/mL; minimal effective concentration ([1]; Table 10): 1.11 µM; Maximal Response (pg/mL) TNF [1, 4]: 2865 pg/mL
21 | Nc1nc2ccccc2c2c1nc(CCO)n2CCCCNC(=O)c1cnc2ccccc2c1 [Example 116] | 8361 pg/mL | 0.37 µM | 30 µM | 1112 pg/mL | 
22 | CCOCc1nc2c(N)nc3cc(-c4cncc(CO)c4)ccc3c2n1CC(C)C [Analog 28] |  |  |  |  | minimal effective concentration (interferon (α) (IFN-α); Table 10): 0.04 µM; Maximal Response (pg/mL) IFN (interferon (α) (IFN-α); [4]): 1263 pg/mL; minimal effective concentration ([1]; Table 10): 0.37 µM; Maximal Response (pg/mL) TNF [1, 4]: 3885 pg/mL
23 | CCCc1nc2c(N)nc3ccccc3c2n1CCCNS(C)(=O)=O [Analog 60] | 2148 pg/mL | 1.11 µM | 10 µM | 109 pg/mL | 
24 | Nc1nc2ccccc2c2c1nc(CCO)n2CCCCCCCCNC(=O)Nc1ccccc1 [Example 118] | 5177 pg/mL | 0.37 µM | >30 µM | * | 
25 | Nc1nc2ccccc2c2c1nc(CCO)n2CCCNC(=O)c1ccccc1 [Example 132] | 8361 pg/mL | 0.37 µM | >30 µM | * | 
26 | CC(C)(Cn1c(CO)nc2c(N)nc3ccccc3c21)NC(=O)C1CCCCC1 [Example 5, N-[2-(4-Amino-2-hydroxymethyl-1H-imidazo[4,5-c]quinolin-1-yl)-1,1-dimethylethyl]cyclohexanecarboxamide] | 17274 pg/mL |  |  | 1130 pg/mL | 
27 | COCCc1nc2c(N)nc3ccccc3c2n1CCCNS(=O)(=O)c1ccc(C)cc1 [Analog 109] | 638 pg/mL | 0.04 µM | 0.37 µM | 6169 pg/mL | 
28 | CCc1nc2c(N)nc3ccccc3c2n1CC(C)(C)CN [Analog 99] | 405 pg/mL | 0.04 µM | 0.37 µM | 13846 pg/mL | 
29 | CCCc1nc2c(N)nc3cc(-c4cccnc4)ccc3c2n1CC(C)(C)O [Analog 9, 1-(4-amino-2-propyl-7-pyridin-3-yl-1H-imidazo[4,5-c]quinolin-1-yl)-2-methylpropan-2-ol] |  |  |  |  | Maximal Response (pg/mL) IFN (interferon (α) (IFN-α); Table 9, background-subtracted, reference-adjusted): 597 pg/mL; Maximal Response (pg/mL) IFN (interferon (α) (IFN-α); [4]): 597 pg/mL; Maximal Response (pg/mL) TNF [1, 3]: 3951 pg/mL; Maximal Response (pg/mL) TNF [1, 4]: 3951 pg/mL
30 | CCOCc1nc2c(N)nc3ccccc3c2n1CCNC(=O)NC(C)C [Analog 125] | 2045 pg/mL | 0.37 µM | 10 µM | 7512 pg/mL | 
31 | CCOCc1nc2c(N)nc3ccccc3c2n1CCNS(C)(=O)=O [Analog 71] | 1465 pg/mL | 0.12 µM | 3.33 µM | 4918 pg/mL | 
32 | COCCc1nc2c(N)nc3ccccc3c2n1CC(C)(C)CNC(=O)c1ccccc1 [Analog 96] | 2133 pg/mL | 0.014 µM | 0.014 µM | 1812 pg/mL | 
33 | CCOCc1nc2c(N)nc3ccccc3c2n1CC(C)(C)N [Analog 111] | 656 pg/mL | 0.12 µM | 0.37 µM | 11475 pg/mL | 
